Assay results as given in the supplement of paper PMC7840683.
Counter-ions that a name gives are not always drawn. ± gives the standard deviation of the averaged measurements.

Test system: HepaRG
Test: LDH release cytotoxicity, % of total lysis control; higher = more cytotoxic
Settings: 48 h
How it was run: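 Duplicate wells of single-lot HepaRG cells, grown on collagen I-coated 96-well plates, received eight-point half-log series of test chemicals with 100 µM as the top concentration. Exposure lasted 48 h in serum-free induction medium with 0.5% DMSO, while total lysis wells received 0.1% Triton X. Resorufin fluorescence (CytoTox-ONE, Tecan Safire) was used to quantify LDH leaked into 50 µL of spent medium. Values for percent cytotoxicity were normalized to on-plate vehicle and total lysis controls and averaged across the duplicates.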

CCOP(=S)(OCC)SCSP(=S)(OCC)OCC [Ethion]
LDH release cytotoxicity (0.03162 µM): -0.671 ± 0.69%
LDH release cytotoxicity (0.1 µM): -1.31 ± 0.3%
LDH release cytotoxicity (0.3162278 µM): -1.54 ± 0.12%
LDH release cytotoxicity (1 µM): -1.6 ± 0.47%
LDH release cytotoxicity (3.16228 µM): -1.07 ± 0.078%
LDH release cytotoxicity (10 µM): -1.06 ± 0.23%
LDH release cytotoxicity (31.6228 µM): -2.53 ± 0.069%
LDH release cytotoxicity (100 µM): -0.532 ± 0.36%

CC(=O)C1C(=O)C=C(C)OC1=O (configuration not stated) [Sodium dehydroacetate]
LDH release cytotoxicity (0.03162 µM): -0.267 ± 0.55%
LDH release cytotoxicity (0.1 µM): -1.4 ± 0.22%
LDH release cytotoxicity (0.3162278 µM): -2.06 ± 0.58%
LDH release cytotoxicity (1 µM): -1.85 ± 0.29%
LDH release cytotoxicity (3.16228 µM): -2.36 ± 0.14%
LDH release cytotoxicity (10 µM): -1.16 ± 0.3%
LDH release cytotoxicity (31.6228 µM): -0.728 ± 0.029%
LDH release cytotoxicity (100 µM): 0.541 ± 0.069%

COC(=O)c1ccc(C(=O)OC)cc1 [Dimethyl terephthalate]
LDH release cytotoxicity (0.03162 µM): 0.0234 ± 1%
LDH release cytotoxicity (0.1 µM): -0.391 ± 1.6%
LDH release cytotoxicity (0.3162278 µM): -1.12 ± 0.61%
LDH release cytotoxicity (1 µM): -0.654 ± 0.052%
LDH release cytotoxicity (3.16228 µM): -0.533 ± 0.33%
LDH release cytotoxicity (10 µM): 0.0948 ± 0.34%
LDH release cytotoxicity (31.6228 µM): 0.365 ± 0.88%
LDH release cytotoxicity (100 µM): 2.87 ± 0.72%

[OH-].c1cc[c]([Sn+]([c]2ccccc2)[c]2ccccc2)cc1 [Triphenyltin hydroxide]
LDH release cytotoxicity (0.03162 µM): -0.226 ± 1.2%
LDH release cytotoxicity (0.1 µM): -1.04 ± 0.92%
LDH release cytotoxicity (0.3162278 µM): -0.513 ± 0.71%
LDH release cytotoxicity (1 µM): 46.3 ± 2.9%
LDH release cytotoxicity (3.16228 µM): 68.1 ± 5.3%
LDH release cytotoxicity (10 µM): 57.1 ± 7.2%
LDH release cytotoxicity (31.6228 µM): 63.5 ± 2.9%
LDH release cytotoxicity (100 µM): 64.4 ± 3.7%

CCC(CC)Nc1c([N+](=O)[O-])cc(C)c(C)c1[N+](=O)[O-] [Pendimethalin]
LDH release cytotoxicity (0.03162 µM): -2.12 ± 0.66%
LDH release cytotoxicity (0.1 µM): -1.6 ± 0.38%
LDH release cytotoxicity (0.3162278 µM): -0.436 ± 0.39%
LDH release cytotoxicity (1 µM): 0.269 ± 1.7%
LDH release cytotoxicity (3.16228 µM): 1.12 ± 0.21%
LDH release cytotoxicity (10 µM): 0.875 ± 1.2%
LDH release cytotoxicity (31.6228 µM): -2.25 ± 0.069%
LDH release cytotoxicity (100 µM): 1.08 ± 1.2%

C=CC(=C)CCC=C(C)C [Myrcene]
LDH release cytotoxicity (0.031623 µM): -1.27 ± 1.6%
LDH release cytotoxicity (0.1 µM): -2.39 ± 1%
LDH release cytotoxicity (0.316228 µM): -2.35 ± 0.3%
LDH release cytotoxicity (1 µM): -1.45 ± 0.82%
LDH release cytotoxicity (3.16228 µM): -1.74 ± 1.4%
LDH release cytotoxicity (10 µM): -1.93 ± 0.083%
LDH release cytotoxicity (31.6228 µM): -1.8 ± 0.49%
LDH release cytotoxicity (100 µM): 0.279 ± 0.4%

Cc1c2ccccc2c(C)c2c1ccc1ccccc12 [7,12-Dimethylbenz(a)anthracene]
LDH release cytotoxicity (0.03162 µM): -1.46 ± 0.43%
LDH release cytotoxicity (0.1 µM): -1.68 ± 0.46%
LDH release cytotoxicity (0.3162278 µM): -1.43 ± 0.069%
LDH release cytotoxicity (1 µM): -1.27 ± 1.4%
LDH release cytotoxicity (3.16228 µM): -1.45 ± 0.084%
LDH release cytotoxicity (10 µM): -1.64 ± 0.1%
LDH release cytotoxicity (31.6228 µM): 1.86 ± 0.39%
LDH release cytotoxicity (100 µM): -0.663 ± 0.032%

COCCOCCOCCOC [Triethylene glycol dimethyl ether]
LDH release cytotoxicity (0.03162 µM): -0.0874 ± 2%
LDH release cytotoxicity (0.1 µM): -4.26 ± 1.7%
LDH release cytotoxicity (0.3162278 µM): -4.61 ± 0.24%
LDH release cytotoxicity (1 µM): -3.35 ± 0.35%
LDH release cytotoxicity (3.16228 µM): -3.81 ± 0.89%
LDH release cytotoxicity (10 µM): -3.38 ± 0.75%
LDH release cytotoxicity (31.6228 µM): -2.47 ± 1.8%
LDH release cytotoxicity (100 µM): 1.14 ± 1.8%

c1ccc2cc3c(ccc4ccccc43)cc2c1 [Benz(a)anthracene]
LDH release cytotoxicity (0.03162 µM): 0.322 ± 0.091%
LDH release cytotoxicity (0.1 µM): -1.2 ± 0.19%
LDH release cytotoxicity (0.3162278 µM): -1.02 ± 0.054%
LDH release cytotoxicity (1 µM): -1.2 ± 0.3%
LDH release cytotoxicity (3.16228 µM): -0.916 ± 0.025%
LDH release cytotoxicity (10 µM): -0.353 ± 0.34%
LDH release cytotoxicity (31.6228 µM): -1.51 ± 0.18%
LDH release cytotoxicity (100 µM): -1.17 ± 0.12%

CC(C)(C)OOC(C)(C)C [Di-tert-butyl peroxide]
LDH release cytotoxicity (0.01581 µM): -1.21 ± 0.27%
LDH release cytotoxicity (0.05 µM): -2.14 ± 0.51%
LDH release cytotoxicity (0.1581139 µM): -1.99 ± 0.23%
LDH release cytotoxicity (0.5 µM): -2.18 ± 0.81%
LDH release cytotoxicity (1.5811388 µM): -1.46 ± 0.93%
LDH release cytotoxicity (5 µM): -1.68 ± 1.1%
LDH release cytotoxicity (15.8114 µM): -1.75 ± 0.98%
LDH release cytotoxicity (50 µM): -1.55 ± 0.28%

CN(Cc1cnc2nc(N)nc(N)c2n1)c1ccc(C(=O)NC(CCC(=O)O)C(=O)O)cc1 (configuration not stated) [Methotrexate]
LDH release cytotoxicity (0.03162 µM): -2.75 ± 1.4%
LDH release cytotoxicity (0.1 µM): -1.02 ± 1.2%
LDH release cytotoxicity (0.3162278 µM): 0.713 ± 1%
LDH release cytotoxicity (1 µM): 0.595 ± 0.46%
LDH release cytotoxicity (3.16228 µM): 2.21 ± 1.1%
LDH release cytotoxicity (10 µM): 1.79 ± 0.51%
LDH release cytotoxicity (31.6228 µM): 3.1 ± 0.33%
LDH release cytotoxicity (100 µM): 3.39 ± 1.3%

CCOC(=O)C(O)(c1ccc(Cl)cc1)c1ccc(Cl)cc1 [Chlorobenzilate]
LDH release cytotoxicity (0.03162 µM): -0.592 ± 1.7%
LDH release cytotoxicity (0.1 µM): -1.28 ± 2.1%
LDH release cytotoxicity (0.3162278 µM): -1.55 ± 0.35%
LDH release cytotoxicity (1 µM): -2.17 ± 0.12%
LDH release cytotoxicity (3.16228 µM): -2.04 ± 1.4%
LDH release cytotoxicity (10 µM): -1.17 ± 0.5%
LDH release cytotoxicity (31.6228 µM): -0.669 ± 0.95%
LDH release cytotoxicity (100 µM): 3.46 ± 1.6%

O=C(O)c1ccccc1C(c1ccc(O)cc1)c1ccc(O)cc1 [Phenolphthalin]
LDH release cytotoxicity (0.03162 µM): -1.69 ± 0.25%
LDH release cytotoxicity (0.1 µM): -1.91 ± 1.3%
LDH release cytotoxicity (0.3162278 µM): -2.15 ± 0.91%
LDH release cytotoxicity (1 µM): -2.6 ± 0.41%
LDH release cytotoxicity (3.16228 µM): -1.53 ± 0.2%
LDH release cytotoxicity (10 µM): -1.03 ± 0.2%
LDH release cytotoxicity (31.6228 µM): -1.15 ± 0.7%
LDH release cytotoxicity (100 µM): 0.0929 ± 0.98%

CC(c1ccc(O)cc1)(c1ccc(O)cc1)c1ccc(O)cc1 [4,4',4''-Ethane-1,1,1-triyltriphenol]
LDH release cytotoxicity (0.03162 µM): -1.89 ± 0.76%
LDH release cytotoxicity (0.1 µM): -1.24 ± 0.1%
LDH release cytotoxicity (0.3162278 µM): -1.7 ± 0.43%
LDH release cytotoxicity (1 µM): -1.8 ± 0.66%
LDH release cytotoxicity (3.16228 µM): -0.727 ± 0.39%
LDH release cytotoxicity (10 µM): -1.47 ± 0.018%
LDH release cytotoxicity (31.6228 µM): -1.43 ± 0.12%
LDH release cytotoxicity (100 µM): -0.486 ± 0.26%

O=C(O)C(F)(F)C(F)(F)C(F)(F)C(F)(F)C(F)(F)C(F)(F)F [Perfluoroheptanoic acid]
LDH release cytotoxicity (0.03162 µM): -2.26 ± 1%
LDH release cytotoxicity (0.1 µM): -2.63 ± 0.69%
LDH release cytotoxicity (0.3162278 µM): -3.62 ± 0.96%
LDH release cytotoxicity (1 µM): -3.63 ± 0.086%
LDH release cytotoxicity (3.16228 µM): -2.82 ± 0.55%
LDH release cytotoxicity (10 µM): -2.95 ± 0.085%
LDH release cytotoxicity (31.6228 µM): -2.44 ± 0.19%
LDH release cytotoxicity (100 µM): -2.23 ± 0.48%

CCCCOC(=O)CC(CC(=O)OCCCC)(OC(C)=O)C(=O)OCCCC [Acetyl tributyl citrate]
LDH release cytotoxicity (0.03162 µM): -1.13 ± 2%
LDH release cytotoxicity (0.1 µM): -1.34 ± 0.08%
LDH release cytotoxicity (0.3162278 µM): -1.35 ± 0.17%
LDH release cytotoxicity (1 µM): -1.86 ± 1.8%
LDH release cytotoxicity (3.16228 µM): -1.7 ± 0.77%
LDH release cytotoxicity (10 µM): -0.33 ± 1.3%
LDH release cytotoxicity (31.6228 µM): -0.458 ± 0.058%
LDH release cytotoxicity (100 µM): 0.439 ± 0.83%

O=S(=O)(O)C(F)(F)C(F)(F)C(F)(F)C(F)(F)F [Potassium perfluorobutanesulfonate]
LDH release cytotoxicity (0.0332039 µM): -0.897 ± 0.78%
LDH release cytotoxicity (0.105 µM): -1.25 ± 1.1%
LDH release cytotoxicity (0.332039 µM): -2.33 ± 0.91%
LDH release cytotoxicity (1.05 µM): -2.02 ± 0.33%
LDH release cytotoxicity (3.32039 µM): -1.34 ± 0.56%
LDH release cytotoxicity (10.5 µM): -1.05 ± 0.085%
LDH release cytotoxicity (33.2039 µM): -1.53 ± 0.46%
LDH release cytotoxicity (105 µM): 0.458 ± 0.54%

OCCOCCO [Diethylene glycol]
LDH release cytotoxicity (0.03162 µM): -0.757 ± 0.022%
LDH release cytotoxicity (0.1 µM): -1.02 ± 0.94%
LDH release cytotoxicity (0.3162278 µM): -1.03 ± 0.3%
LDH release cytotoxicity (1 µM): -0.601 ± 0.41%
LDH release cytotoxicity (3.16228 µM): -1.16 ± 0.75%
LDH release cytotoxicity (10 µM): -0.563 ± 0.71%
LDH release cytotoxicity (31.6228 µM): -0.731 ± 0.0084%
LDH release cytotoxicity (100 µM): 0.422 ± 0.8%

COc1cc(C=O)ccc1O [4-Hydroxy-3-methoxybenzaldehyde]
LDH release cytotoxicity (0.031623 µM): -0.0885 ± 1.4%
LDH release cytotoxicity (0.1 µM): -2.63 ± 0.42%
LDH release cytotoxicity (0.316228 µM): -3.71 ± 0.71%
LDH release cytotoxicity (1 µM): -4.06 ± 0.31%
LDH release cytotoxicity (3.16228 µM): -3.91 ± 0.7%
LDH release cytotoxicity (10 µM): -3.69 ± 0.35%
LDH release cytotoxicity (31.6228 µM): -3.12 ± 0.07%
LDH release cytotoxicity (100 µM): 0.307 ± 0.14%
